In US5648366A, “Substituted pyrrolidin-3-yl-alkyl-piperidines” (Merrell Pharmaceuticals Inc., priority 1995, dated 1997):

Assays:
NK2 receptor = experiment: Antagonism of NKA aerosol induced respiratory effects in conscious guinea pigs; type: in vivo, guinea pig; settings: 20 min prior to NKA aerosol (0.05%); for DYSPNEA ONSET: mean and SEM
Description: ANTAGONISM OF NKA AND CAPSAICIN INDUCED R[…] IN CONSCIOUS GUINEA PIGS
In vivo experiments were performed using male Duncan Hartley guinea pigs (250-350 g). Changes in conscious breathing patterns were monitored in four animals simultaneously using modified whole body plethysmography consisting of four small plexiglass boxes each connected to a reference box via Validyne DP 45-16 differential pressure transducers. The 4 boxes were equipped with an air supply line (also used for aerosol delivery) and an exhaust air line. Supply and exhaust lines were of the same length and narrow bore and arose from a common supply chamber and vented to a common exhaust chamber. This system was used to ensure that fluctuations in supply air and atmospheric pressure would remain in phase and be eliminated from the net signal by the differential pressure transducers. The analog pressure signals were digitalized via a Data Translation DT2821 A to D board. Data were collected at a rate of 100 samples/second/animal. Each cycle of pressure change was analyzed using the following parameters: rising and falling slope determined between minimum and maximum pressures, the ratio of rising over falling slope, and the magnitude of the change between initial trough pressure and peak cycle pressure. Using these values (and observing the animals) the pressure cycles were characterized into normal breaths, forced exhalations (apparent by abdominal heaving), significant respiratory events (SREs; usually coughs, less often sneezes or gasps which were characterized by transient, extremely large pressure increases which were distinguishable from noise) and movement/noise with a PCAT 286 running a System V UNIX operating system. Dyspnea was defined as a significant, sustained increase in plethysmograph pressure which was associated with an observable shift to labored breathing in the animal.
During the course of a typical experiment in which airway responsiveness to various bronchoconstricting agents was examined, aerosols were delivered for 19 min (0.33 ml/min) using a DeVilbiss Ultraneb 99 ultrasonic nebulizer and animals monitored during this time. Prior to nebulization, 1 min of resting breathing was collected to establish a baseline pressure. […] The vehicle for nebulization of all bronchoconstrictive agents was phosphate buffered saline (pH 7.4) which elicited no r[…] itself. Putative tachykinin antagonists were administered either (i.v.) 20 min prior to onset of aerosol exposure or orally 1 hour prior to onset (to guinea pigs after an overnight fast).
Table 6 illustrates the effects of the compounds of Example 3; Example 20A; and Example 5A on r[…] induced by NKA aerosol. […] These effects were dose dependent i.e. the higher the dose of compound, the greater attenuation of NKA-mediated effects.

[1] = molecular target: T1, human jejunal NK2 receptor (Homo sapiens, UniProt P21452); experiment: Antagonism of iodinated tachykinin (125I-neurokinin A) binding to NK2 receptor in HSKR-1 cells
T1 construct: expressed in transfected cells; host or cells: HSKR-1 cells (mouse 3T3 fibroblasts)
T1 sequence (P21452 1-398): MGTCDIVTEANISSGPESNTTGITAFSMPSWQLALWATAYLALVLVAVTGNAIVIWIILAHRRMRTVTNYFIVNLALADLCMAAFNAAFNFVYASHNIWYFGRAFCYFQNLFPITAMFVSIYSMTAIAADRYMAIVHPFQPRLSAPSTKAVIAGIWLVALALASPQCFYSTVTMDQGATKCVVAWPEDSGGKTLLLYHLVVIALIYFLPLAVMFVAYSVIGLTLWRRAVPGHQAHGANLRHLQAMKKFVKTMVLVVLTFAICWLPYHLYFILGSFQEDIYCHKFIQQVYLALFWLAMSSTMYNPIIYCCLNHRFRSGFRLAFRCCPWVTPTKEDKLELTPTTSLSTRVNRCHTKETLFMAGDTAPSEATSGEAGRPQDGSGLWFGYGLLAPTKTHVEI
Description: ANTAGONISM OF IODINATED TACHYKININ BINDING TO NK1 AND NK2 RECEPTORS BY PUTATIVE ANTAGONISTS
The NK1 receptor affinity of proposed tachykinin antagonists was evaluated in guinea pig lungs (Keystone Biologicals, Cleveland, Ohio), affinity for the NK2 receptor evaluated in HSKR-1 cells (which are mouse 3T3 fibroblasts expressing the human jejunal NK2 receptor) and NK-3 receptor affinity was evaluated in freshly collected guinea pig cerebral cortex. Tissues or cells were homogenized with a Polytron in 15 volumes of 50 mM Tris-HCl buffer (pH 7.4, 4° C.) and centrifuged. The pellet was resuspended in Tris-HCl buffer and was centrifuged; the pellet was washed twice by resuspension. The final pellet was resuspended at a concentration of 40 mg/ml for tissues (guinea pig lung and cerebral cortex) and 20 mg/ml for cells in incubation buffer and remained at room temperature for at least 15 min prior to use. […] Filter bound radioactivity was quantitated in a gamma counter. […] Specific binding was calculated by subtracting nonspecific binding from total binding. Competition of iodinated SP, NKA, or eledoisin binding by test compounds or standards was expressed as a percentage of this maximum competition. […]

NK1 receptor = NK1 receptor (Cavia porcellus, UniProt P30547); experiment: Antagonism of SP-induced plasma protein extravasation in guinea pig trachea; type: in vivo; parameters: SP-induced plasma protein extravasation in guinea pig trachea; from tissue; host or cells: living guinea pig; trachea and primary bronchi; settings: i.v.
NK1 receptor, sequence (P30547 whole entry): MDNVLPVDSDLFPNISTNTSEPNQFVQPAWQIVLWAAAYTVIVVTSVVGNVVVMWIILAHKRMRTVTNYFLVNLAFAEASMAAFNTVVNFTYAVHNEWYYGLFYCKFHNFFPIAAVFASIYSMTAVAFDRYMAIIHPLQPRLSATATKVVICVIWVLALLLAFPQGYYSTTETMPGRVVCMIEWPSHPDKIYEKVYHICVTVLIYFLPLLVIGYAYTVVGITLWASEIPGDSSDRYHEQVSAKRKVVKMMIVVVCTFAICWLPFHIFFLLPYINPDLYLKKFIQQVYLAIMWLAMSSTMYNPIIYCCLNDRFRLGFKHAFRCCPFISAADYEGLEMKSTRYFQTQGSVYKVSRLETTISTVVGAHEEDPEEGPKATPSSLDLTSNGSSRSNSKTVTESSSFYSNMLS
Description: ANTAGONISM OF SP-INDUCED PLASMA PROTEIN EXTRAVASATION IN GUINEA PIG TRACHEA
SP-induced protein leakage through postcapillary venules was assessed by measuring Evans Blue dye accumulation in guinea pig trachea. Animals were anesthetized with pentobarbital then injected with Evans Blue dye (20 mg/kg, i.v., prepared in 0.9% NaCl solution). One minute after dye administration, the antagonist was administered (i.v.) followed by SP (0.3 nmole/kg, i.v.) and, after 5 min, excess dye removed from the circulation by transcardiac perfusion with 50 ml 0.9% NaCl solution. The trachea and primary bronchi were removed, blotted dry and weighed. Dye quantitation was performed spectrophotometrically ([…]) after extracting tissues in formamide for 24 hr at 50° C. Values were subtracted from background (dye only, no agonist). ED50 (dose of compound which inhibits SP-induced plasma protein extravasation by 50%) was calculated from linear regression analysis.

COc1cc(C(=O)N2CCC(CCN3CCC(C(N)=O)(c4ccccc4)CC3)(c3ccc(Cl)c(Cl)c3)C2)cc(OC)c1OC (stereo not shown) [Example 3, 1-[2-[3-(3,4-dichloro-phenyl)-1-(3,4,5-trimethoxy-benzoyl)-pyrrolidin-3-yl]-ethyl]-4-phenyl-piperidine-4-carboxylic acid amide]
DYSPNEA INCIDENCE (NK2 receptor; 5 mg/kg): 86%
DYSPNEA ONSET (NK2 receptor; 5 mg/kg): 394 ± 32 s
DYSPNEA INCIDENCE (NK2 receptor; 10 mg/kg): 60%
DYSPNEA ONSET (NK2 receptor; 10 mg/kg): 801 ± 104 s
affinity for NK2 receptors (in words) [1]: high affinity
antagonism of SP-induced plasma protein extravasation (in words, FIG. 2) (NK1 receptor): dose related antagonism
relative potency as NK-1 receptor antagonists (in words) (NK1 receptor; Example 3 versus Example 20A): equipotent
